According to BindingDB's records for patent US11648254 (Kumquat Biosciences, 2023):

The molecules below were run against T1, Son of sevenless homolog 1 (Homo sapiens, UniProt Q07889) (assay: Ras-SOS Interaction Assay).
T1 sequence (Q07889 whole entry): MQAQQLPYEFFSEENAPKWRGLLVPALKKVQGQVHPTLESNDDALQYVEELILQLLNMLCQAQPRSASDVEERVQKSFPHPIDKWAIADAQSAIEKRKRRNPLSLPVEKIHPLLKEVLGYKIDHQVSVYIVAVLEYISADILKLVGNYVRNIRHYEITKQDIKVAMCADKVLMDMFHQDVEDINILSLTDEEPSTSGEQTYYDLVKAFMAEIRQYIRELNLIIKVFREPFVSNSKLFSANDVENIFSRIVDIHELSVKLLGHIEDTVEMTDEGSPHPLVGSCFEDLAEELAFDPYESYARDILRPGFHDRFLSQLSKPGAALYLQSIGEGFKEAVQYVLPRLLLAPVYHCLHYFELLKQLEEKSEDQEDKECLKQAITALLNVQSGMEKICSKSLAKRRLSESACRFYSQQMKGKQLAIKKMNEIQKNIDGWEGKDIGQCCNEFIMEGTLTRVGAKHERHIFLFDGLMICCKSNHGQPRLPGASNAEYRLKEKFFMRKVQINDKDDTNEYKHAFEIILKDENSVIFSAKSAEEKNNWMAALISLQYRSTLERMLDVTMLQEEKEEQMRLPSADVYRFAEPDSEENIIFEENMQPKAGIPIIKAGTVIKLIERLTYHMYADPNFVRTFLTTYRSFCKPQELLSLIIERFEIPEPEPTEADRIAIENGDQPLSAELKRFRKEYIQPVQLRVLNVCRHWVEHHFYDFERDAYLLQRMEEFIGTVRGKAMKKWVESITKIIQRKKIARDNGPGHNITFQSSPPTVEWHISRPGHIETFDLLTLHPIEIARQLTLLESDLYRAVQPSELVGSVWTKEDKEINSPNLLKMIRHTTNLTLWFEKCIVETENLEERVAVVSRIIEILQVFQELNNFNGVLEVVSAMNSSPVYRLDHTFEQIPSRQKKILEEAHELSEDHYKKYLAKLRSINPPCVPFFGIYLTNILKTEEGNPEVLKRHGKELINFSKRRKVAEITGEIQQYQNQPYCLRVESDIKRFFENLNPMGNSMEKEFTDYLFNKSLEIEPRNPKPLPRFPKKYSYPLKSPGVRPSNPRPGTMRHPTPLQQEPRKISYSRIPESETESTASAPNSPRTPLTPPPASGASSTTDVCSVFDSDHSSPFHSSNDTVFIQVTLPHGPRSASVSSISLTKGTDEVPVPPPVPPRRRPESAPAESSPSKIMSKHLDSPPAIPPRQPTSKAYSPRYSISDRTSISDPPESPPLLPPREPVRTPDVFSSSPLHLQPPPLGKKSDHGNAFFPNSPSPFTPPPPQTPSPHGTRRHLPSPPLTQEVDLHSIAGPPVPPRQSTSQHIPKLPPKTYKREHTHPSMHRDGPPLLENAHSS
Source text: The ability of any compound of the present disclosure to reduce a Ras protein signaling output by, e.g., interfering or disrupting interaction (or binding) between SOS1 and a Ras protein can be assessed in vitro. For example, the equilibrium interaction of human SOS1 (hSOS1) with human wildtype Kras or K-Ras mutant (e.g., hK-Ras G12C mutant, or hK-RasG12C) can be assessed as a proxy or an indication for a subject compound's ability to inhibit SOS. Detection of such interaction is achieved by measuring homogenous time-resolved fluorescence resonance energy transfer (HTRF) from (i) a fluorescence resonance energy transfer (FRET) donor (e.g., antiGST-Europium) that is bound to GST-tagged K-RasG12C to (ii) a FRET acceptor (e.g., anti-6His-XL665) bound to a His-tagged hSOS1. […] A Ras working solution is prepared in assay buffer containing typically 10 nM of the protein construct (e.g., GST-tagged hK-RasG12C) and 2 nM of the FRET donor (e.g., antiGST-Eu(K) from Cisbio, France). A SOS1 working solution is prepared in assay buffer containing typically 10 nM of the protein construct (e.g., His-hSOS1) and 10 nM of the FRET acceptor (e.g., anti-6His-XL665 from Cisbio, France). An inhibitor control solution is prepared in assay buffer containing 10 nM of the FRET acceptor without the SOS1 protein. A fixed reaction mixture with or without test compound is transferred into a 384-well plate. Ras working solution is added to all wells of the test plate. SOS1 working solution is added to all wells except for those that are subsequently filled the inhibitor control solution.

Compound | IC50 [nM]
COc1nc2nc(C)nc(N[C@H](C)c3cccc(C(C)(F)F)c3F)c2cc1C1CCS(=O)(=O)CC1 [US11648254, Compound 150] | < 100
COc1nc2nc(C)nc(N[C@H](C)c3cccc(C(F)(F)C4CCN(C(C)C)CC4)c3F)c2cc1C1(C#N)CC1 [US11648254, Compound 377] | < 100
COc1nc2nc(C)nc(N[C@H](C)c3cccc(C(F)(F)C4CN(C)C4)c3)c2cc1N1CCS(=O)(=O)CC1 [US11648254, Compound 272] | < 100
Cc1nc(N[C@H](C)c2cccc(C(F)F)c2F)c2cc(C3(C#N)CC3)c(O[C@H]3CCOC3)nc2n1 [US11648254, Compound 297] | < 100
COc1nc2nc(C)nc(N[C@H](C)c3cccc(C(F)F)c3F)c2cc1C1CCN(C(=O)NC2COC2)CC1 [US11648254, Compound 116] | < 100
COc1nc2nc(C)nc(N[C@H](C)c3cccc(C(F)(F)F)c3C)c2cc1C1CCS(=O)(=O)CC1 [US11648254, Compound 118] | < 100
COc1nc2nc(C)nc(N[C@H](C)c3cccc(C(F)F)c3F)c2cc1[C@H]1C[C@@H](NC(=O)C2COC2)C1 [US11648254, Compound 125] | < 100
COc1nc2nc(C)nc(N[C@H](C)c3cccc(C(F)(F)C4CCCO4)c3F)c2cc1C1CCS(=O)(=O)CC1 (some centres not stated) [US11648254, Compound 148] | < 100
Cc1nc(N[C@H](C)c2cccc(C(F)F)c2F)c2cc(S(=O)(=O)C3CCN(C)CC3)c(Cl)nc2n1 [US11648254, Compound 132] | < 100
COCCOc1nc2nc(C)nc(N[C@H](C)c3cccc(C(F)F)c3F)c2cc1C1(C#N)CC1 [US11648254, Compound 151] | < 100
COc1nc2ncnc(N[C@H](C)c3cccc(C(F)(F)F)c3C)c2cc1C1CCN(C2CCOCC2)CC1 [US11648254, Compound 374] | < 100
COc1nc2ncnc(N[C@H](C)c3cccc(C(F)(F)F)c3C)c2cc1C1CCS(=O)(=O)CC1 [US11648254, Compound 373] | < 100
